Target: T1, human CTPS1 (Homo sapiens, UniProt P17812)
T1 sequence (P17812 1-591): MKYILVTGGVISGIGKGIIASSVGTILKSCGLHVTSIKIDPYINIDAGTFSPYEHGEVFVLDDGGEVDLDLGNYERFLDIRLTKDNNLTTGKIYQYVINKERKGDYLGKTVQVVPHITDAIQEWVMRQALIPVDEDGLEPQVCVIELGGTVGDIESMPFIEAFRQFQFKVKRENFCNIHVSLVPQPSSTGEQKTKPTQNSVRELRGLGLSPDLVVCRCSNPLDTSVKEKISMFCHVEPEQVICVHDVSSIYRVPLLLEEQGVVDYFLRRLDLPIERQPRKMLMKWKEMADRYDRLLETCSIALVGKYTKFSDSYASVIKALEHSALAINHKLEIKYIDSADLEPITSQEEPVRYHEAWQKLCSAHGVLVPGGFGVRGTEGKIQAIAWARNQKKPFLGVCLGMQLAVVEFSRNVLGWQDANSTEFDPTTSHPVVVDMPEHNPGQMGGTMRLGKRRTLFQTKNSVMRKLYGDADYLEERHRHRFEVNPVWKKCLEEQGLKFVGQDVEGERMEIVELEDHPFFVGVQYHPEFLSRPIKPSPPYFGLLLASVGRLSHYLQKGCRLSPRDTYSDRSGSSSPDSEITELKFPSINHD
Assay: ADP-Glo assay, human CTPS1 enzyme inhibition
Assay type: biochemical
Conditions: wild-type human CTPS1, 25 nM enzyme; ADP-Glo; read-out: ADP-Glo_WT_hCTPS1—25 nM_IC50 (IC50)
Procedure: The enzyme inhibitory activities of the compounds of the invention against the target of interest were determined using the ADP-Glo™ assay (Promega). Assays for human CTPS1 and CTPS2 were performed in 1× assay buffer containing 50 mM HEPES (Life Technologies), 10 mM Mg2+, 5 mM KCl, 2 mM DTT, 0.01% F-127, pH to 7.4 accordingly. All reagents are from Sigma-Aldrich, unless specified otherwise. Purified human full length active N-terminal FLAG-8×HIS-TEV tagged CTPS1 (UniprotKB—P17812, […]-CTPS1[1-591]) was generated using a mammalian expression system at Viva Biotech (Shanghai) Ltd.
Purified human CTPS1 protein was prepared in 1× assay buffer to the final working protein concentration required for the reaction. A 2.5 μL volume per well of human CTPS 1 protein was mixed with 0.1 μL per well of test compound dissolved in DMSO and pre-incubated at 25 degrees C. for 10 minutes. 2.5 μL per well of the reaction precursors ATP (UltraPure ATP from ADP-Glo™ kit) and UTP were then added and pre-incubated for an additional 10 minutes at 25 degrees C. Finally, the reaction was initiated by the addition of 5 μL of the reaction precursors L-glutamine and GTP. The final concentration of all reaction components in the assay: ATP (120 μM), UTP (160 μM), GTP (60 μM), L-Glutamine (100 μM), DMSO (1%), hCTPS1 (25 nM). This mixture was incubated for an appropriate amount of time within the determined linear phase of the reaction at 25 degrees C. under sealed plate conditions with constant agitation at 500 revolutions per minute (rpm). ADP-Glo™ reagent was added for 60 minutes (10 μL per well) and subsequently ADP-Glo™ development reagent was added for 60 minutes (20 μL per well) prior to signal detection in a microplate reader (Envision Multilabel Reader, Perkin Elmer). Following each reagent addition over the course of the assay, assay plates were pulse centrifuged for 1 minute at 1000 rpm.
The enzyme converts ATP to ADP and the ADP-Glo™ reagent subsequently depletes any remaining ATP in the reaction system. The ADP-Glo™ detection reagents converts the ADP that has been produced by the enzyme back into ATP, which is then utilized as a substrate together with luciferin for the enzyme luciferase. Light generated by this chemiluminescent reaction is quantified and is directly proportional to the amount of ADP produced by the CTPS1 enzyme reaction. […]

| IC50 [nM] | SMILES |
| --- | --- |
| 5 to 25 | CCOc1cncc(-c2cnc(C(=O)N[C@@H](c3cc(NS(=O)(=O)C4CC4)ccn3)C3CCOCC3)s2)n1 [I-19, (R)—N-((4-(cyclopropanesulfonamido)pyridin-2-yl)(tetrahydro-2H-pyran-4-yl)methyl)-5-(6-ethoxypyrazin-2-yl)thiazole-2-carboxamide] |
| 5 to 25 | CCOc1cncc(-c2cnc(C(=O)N[C@H](c3cc(NS(=O)(=O)C4CC4)ccn3)C3CCOCC3)s2)n1 [I-20, (S)—N-((4-(cyclopropanesulfonamido)pyridin-2-yl)(tetrahydro-2H-pyran-4-yl)methyl)-5-(6-ethoxypyrazin-2-yl)thiazole-2-carboxamide] |
| 5 to 25 | CCOc1cncc(-c2cnc(C(=O)N[C@H](COC)c3nccc(NS(=O)(=O)C4CC4)n3)s2)n1 [I-21, (S)-N-(1-(4-(cyclopropanesulfonamido)pyrimidin-2-yl)-2-methoxyethyl)-5-(6-ethoxypyrazin-2-yl)thiazole-2-carboxamide] |
| 5 to 25 | CCOc1cncc(-c2cnc(C(=O)N[C@@H](c3cc(NS(=O)(=O)C4CC4)ccn3)C(C)(C)CN(C)C)s2)n1 [I-43, (R)-N-(1-(4-(cyclopropanesulfonamido)pyridin-2-yl)-3-(dimethylamino)-2,2-dimethylpropyl)-5-(6-ethoxypyrazin-2-yl)thiazole-2-carboxamide] |
| 5 to 25 | CCOc1cncc(-c2cnc(C(=O)N[C@@H](c3cc(NS(=O)(=O)C4CC4)ccn3)[C@H](C)OC)s2)n1 [I-44, N-((1S,2S)-1-(4-(cyclopropanesulfonamido)pyridin-2-yl)-2-methoxypropyl)-5-(6-ethoxypyrazin-2-yl)thiazole-2-carboxamide] |
| 5 to 25 | CCOc1cncc(-c2cnc(C(=O)N[C@H](c3cc(NS(=O)(=O)C4CC4)ccn3)[C@@H](C)OC)s2)n1 [I-45, N-((1R,2R)-1-(4-(cyclopropanesulfonamido)pyridin-2-yl)-2-methoxypropyl)-5-(6-ethoxypyrazin-2-yl)thiazole-2-carboxamide] |
| 5 to 25 | CCOc1cncc(-c2cnc(C(=O)N[C@@H](c3cc(NS(=O)(=O)C4CC4)ccn3)[C@@H](C)OC)s2)n1 [I-46, N-((1S,2R)-1-(4-(cyclopropanesulfonamido)pyridin-2-yl)-2-methoxypropyl)-5-(6-ethoxypyrazin-2-yl)thiazole-2-carboxamide] |
| 5 to 25 | CCOc1cncc(-c2cnc(C(=O)NC(CC(C)(C)N(C)C)c3cc(NS(=O)(=O)C4CC4)ccn3)s2)n1 (stereo not drawn) [I-48, N-(1-(4-(cyclopropanesulfonamido)pyridin-2-yl)-3-(dimethylamino)-3-methylbutyl)-5-(6-ethoxypyrazin-2-yl)thiazole-2-carboxamide] |
| 50 to 100 | CCOc1cncc(-c2cnc(C(=O)N[C@H](CC(C)(C)N(C)C)c3cc(NS(=O)(=O)C4CC4)ccn3)s2)n1 [I-49, (R)-N-(1-(4-(cyclopropanesulfonamido)pyridin-2-yl)-3-(dimethylamino)-3-methylbutyl)-5-(6-ethoxypyrazin-2-yl)thiazole-2-carboxamide] |
| 5 to 25 | CCOc1cncc(-c2cnc(C(=O)N[C@@H](CC(C)(C)N(C)C)c3cc(NS(=O)(=O)C4CC4)ccn3)s2)n1 [I-50, (S)-N-(1-(4-(cyclopropanesulfonamido)pyridin-2-yl)-3-(dimethylamino)-3-methylbutyl)-5-(6-ethoxypyrazin-2-yl)thiazole-2-carboxamide] |
| 50 to 100 | C[C@@H](CN1CCCCC1)[C@@H](NC(=O)c1ncc(-c2cnn3ccc(Cl)cc23)s1)c1cc(NS(=O)(=O)C2CC2)ccn1 [I-55, 5-(5-chloropyrazolo[1,5-a]pyridin-3-yl)-N-((1R,2S)-1-(4-(cyclopropanesulfonamido)pyridin-2-yl)-2-methyl-3-(piperidin-1-yl)propyl)thiazole-2-carboxamide] |
| 5 to 25 | C[C@H](CN1CCCCC1)[C@H](NC(=O)c1ncc(-c2cnn3ccc(Cl)cc23)s1)c1cc(NS(=O)(=O)C2CC2)ccn1 [I-57, 5-(5-chloropyrazolo[1,5-a]pyridin-3-yl)-N-((1S,2R)-1-(4-(cyclopropanesulfonamido)pyridin-2-yl)-2-methyl-3-(piperidin-1-yl)propyl)thiazole-2-carboxamide] |

Source: patent US20250270200A1, “CTPS1 INHIBITORS AND USES THEREOF” (Nimbus Clotho, Inc., priority 2022, published 2025)
